Assay results published in PMC7904550, “Application of grouping and read-across for the evaluation of parabens of different chain lengths with a particular focus on endocrine properties” (Archives of Toxicology, 2021).
Read-outs that look alike come from different tables or passages of the source. Marks after values point to notes of the source that are not given here.

How the values were obtained:
[1] = system: Wistar rats; conditions: ref Harlan 2012, cited from earlier work
[2] = Octanol–water partition coefficient (Log Kow); type: physicochemical; conditions: mean; OECD TG 107 and OECD TG 117
Excerpt: Generally, these parabens have very similar physico-chemical properties.

[3] = system: Wistar rats; assay: Prenatal developmental toxicity study (OECD TG 414); type: in vivo, rat; conditions: for NOAEL, developmental toxicity: OECD 414 v 2001, oral gavage
Excerpt: Healthy and specific pathogen-free male and female (non-pregnant and nulliparous) Wistar Crl: WI(Han) rats were obtained from Charles River Laboratories (Germany). […] Upon arrival at BSL BIOSERVICE, the animals underwent an acclimatisation period of at least 5 days, and they were approximately 15–16 weeks old at the onset of the treatment period.

[4] = system: rats; conditions: rat, in vivo; cited from earlier work
[5] = system: rats; conditions: rat, in vivo; cited from earlier work; remark: listed apart in the source
[6] = system: Wistar rats; assay: Reproductive toxicity screening study (OECD TG 421); type: in vivo, rat; conditions: for NOAEL, reproductive toxicity: OECD 421 v 2016 oral gavage (& historical OECD 422 feeding study)
Procedure: Healthy and specific pathogen-free male and female (non-pregnant and nulliparous) Wistar Crl: WI(Han) rats were obtained from Charles River Laboratories (Germany). The animals were housed in an air-conditioned room (temperature: 22 ± 3 °C; relative humidity: 55 ± 10%; artificial light, light–dark cycle: 12 h–12 h; air change: 10 times/h). Housing was in groups of 5 animals/sex/cage in individually ventilated Type IV polysulphone cages on Altromin saw fibre bedding with free access to both Altromin 1324 maintenance diet for rats and mice and tap water. Upon arrival at BSL BIOSERVICE, the animals underwent an acclimatisation period of at least 5 days, and they were approximately 15–16 weeks old at the onset of the treatment period. […]

[7] = system: rats; conditions: key studies Gazin et al. 2013, Pouliot 2013; ref SCCS 2013; EMA 2015; cited from earlier work
[8] = system: rats; conditions: acute oral, rats, OECD 401; ref ECHA dissemination portal; cited from earlier work
[9] = system: rats; assay: Genetic toxicity in vivo (rats); design: species or system rat; conditions: in vivo OECD TG 478 overriding in vitro OECD TG 473
[10] = system: oestrogen receptors; design: method as in Byford et al. 2002; conditions: ref Byford et al. 2002; cited from earlier work
[11] = system: mammalian cells; conditions: OECD 473 or 487; ref ECHA dissemination portal; cited from earlier work

Question: What does the source list for `CCCOC(=O)c1ccc(O)cc1` [Propyl paraben, Propyl 4-hydroxybenzoate]?
Answer: NOAEL ([1]; historical OECD TG 422 feeding study, 15,000 ppm, first-generation offspring): 1125 mg/kg bw/day; NOAEL ([1]; historical OECD TG 422 feeding study, 15,000 ppm, parental females before pairing): 1076 mg/kg bw/day; NOAEL ([1]; historical OECD TG 422 feeding study, 15,000 ppm, parental males before pairing): 981 mg/kg bw/day; NOAEL ([1]; historical OECD TG 422 feeding study, highest concentration tested): 15,000 ppm; Log Kow [2]: 2.8 (mean; OECD TG 107 and OECD TG 117); NOAEL, developmental toxicity [3]: NOAEL: 1000 (OECD 414; v 2001) mg/kg body weight/day; NOAEL, developmental toxicity ([3]; listed as propyl paraben): 1000 mg/kg body weight/day; Gestation length ([3]; OECD TG 414): n.a. / NAE; NOAEL: No. of foetal deaths; viable foetuses ([3]; OECD TG 414): 1000 mg/kg bw/day; No. of implantations, corpora lutea ([3]; OECD TG 414): NAE / NAE; No. of live births ([3]; OECD TG 414): NAE / NAE; Postimplantation loss ([3]; OECD TG 414): NAE / NAE; Pre-implantation loss ([3]; OECD TG 414): NAE / NAE; Uterus weight (with cervix) ([3]; OECD TG 414): NAE / NAE; Thyroid HP ([3]; dams): NAE / NAE (dams); Thyroid stimulating hormone level ([3]; dams): NAE / NAE (dams); Thyroid weight ([3]; dams): NAE / NAE (dams); Triiodothyronine / thyroxine level ([3]; dams): NAE / NAE (dams); Anogenital distance ([3]; foetus): NAE / NAE; Foetal development ([3]; foetus): NAE / NAE; Litter size ([3]; foetus): NAE / NAE; No. of foetal deaths; viable foetuses ([3]; foetus): NAE / NAE; Presence of anomalies (external, visceral, skeletal) ([3]; foetus): NAE / NAE; Treatment-related effects in dams or pups ([3]; implantation throughout pregnancy): No treatment-related effects; Skin irritation/skin corrosion classification [4]: Not irritating (read-across); Eye irritation/eye corrosion classification [5]: Not irritating [c] (OECD 437 and 405; 2012); NOAEL, reproductive toxicity [6]: NOAEL: 1000 (OECD 421; v 2016 & OECD 422 [b]) mg/kg body weight/day; NOAEL, reproductive toxicity ([6]; listed as propyl paraben): 1000 mg/kg body weight/day; Treatment-related effects in parental animals or pups ([6]; OECD TG 421): no treatment-related effects; Accessory sex organs HP ([6]; P0, F1): n. a. / NAE; Anogenital distance ([6]; P0, F1): n. a. / NAE; Coagulating gland weight ([6]; P0, F1): n. a. / NAE; Dystocia ([6]; P0, F1): n. a. / NAE; Epididymis HP ([6]; P0, F1): n. a. / NAE; Epididymis weight ([6]; P0, F1): n. a. / NAE; Fertility ([6]; P0, F1): n. a. / NAE; Foetal development ([6]; P0, F1): n. a. / NAE; Gestation length ([6]; P0, F1): n. a. / NAE; Litter size ([6]; P0, F1): n. a. / NAE; Litter viability ([6]; P0, F1): n. a. / NAE; Nipple development ([6]; P0, F1): n. a. / NAE; No. of implantations, corpora lutea ([6]; P0, F1): n. a. / NAE; No. of live births ([6]; P0, F1): n. a. / NAE; Oestrus cyclicity ([6]; P0, F1): n. a. / NAE; Ovary HP ([6]; P0, F1): n. a. / NAE; Postimplantation loss ([6]; P0, F1): n. a. / NAE; Pre-implantation loss ([6]; P0, F1): n. a. / NAE; Presence of anomalies (external, visceral, skeletal) ([6]; P0, F1): n. a. / NAE; Prostate HP ([6]; P0, F1): n. a. / NAE; Prostate weight ([6]; P0, F1): n. a. / NAE; Reproduction ([6]; P0, F1): n. a. / NAE; Seminal vesicles weight ([6]; P0, F1): n. a. / NAE; Testis HP ([6]; P0, F1): n. a. / NAE; Testis weight ([6]; P0, F1): n. a. / NAE; Thyroid stimulating hormone level ([6]; P0, F1): n. a. / NAE; Time to mating ([6]; P0, F1): n. a. / NAE; Triiodothyronine / thyroxine level ([6]; P0, F1): n. a. / NAE; Vaginal smears ([6]; P0, F1): n. a. / NAE; NOAEL [7]: 1000 mg/kg bw/day; LD50 [8]: > 5000 (OECD 401; 1982) mg/kg bw

Question: Which results are given for `COC(=O)c1ccc(O)cc1` [Methyl paraben, Methyl 4-hydroxybenzoate]?
Answer: Overall WoE conclusion on genotoxicity [9]: [d] While methyl paraben exhibited in vitro clastogenicity with metabolic activation in an OECD TG 473 study, absence of in vivo clastogenicity in an OECD TG 478 study is overriding in the WoE evaluation so that the overall WoE conclusion is absence of genotoxicity; Rank of oestrogen receptor activation among shorter-chained parabens [10]: the least; Cytogenicity in mammalian cells classification [11]: Clastogenic with metabolic activation (OECD 473; 1987) [d]
